We go through two molecules from publication PMC7392887, “Structural signatures in EPR3 define a unique class of plant carbohydrate receptors” (Nature Communications, 2020).

One assay concerns the target T1, EPR3 (Lotus japonicus, UniProt D3KU53).
T1 construct: gene LYS3; ectodomain (M1, M2, LysM3, stem), residues 33-232; N-terminal gp67 secretion signal, C-terminal 6xHis tag; secreted from Sf9 insect cells (baculovirus); glycosylated or PNGase F-treated; monomer
T1 sequence (D3KU53 33-232): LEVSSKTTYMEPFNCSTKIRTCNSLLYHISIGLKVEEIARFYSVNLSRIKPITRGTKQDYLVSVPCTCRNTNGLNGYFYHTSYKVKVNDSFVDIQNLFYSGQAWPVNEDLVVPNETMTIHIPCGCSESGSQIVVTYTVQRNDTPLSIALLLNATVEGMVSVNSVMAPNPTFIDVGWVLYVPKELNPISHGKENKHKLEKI
The assay is described as follows: microscale thermophoresis. The class given is binding. The settings on record: labelled EPR3 (Blue NHS, 100 nM); 50 mM K2PO4 pH 7.8, 500 mM NaCl, 0.05% Tween-20; 25 °C; n = 3. Background: MST reads how a fluorescent partner responds to local heating, with and without ligand.

The target in assay [1] is T2, Lotus japonicus exopolysaccharide receptor 3 (EPR3) ectodomain (Lotus japonicus ecotype Gifu, N-linked oligosaccharides (glycosylated)).
T2 construct: EPR3 (exopolysaccharide receptor 3), Lotus japonicus ecotype Gifu, ectodomain, residues 33-232; Codon-optimised for insect cells, vector pOET2; also called Lotus EPR3; glycosylated EPR3; source: Sf9 (baculovirus), secreted into the medium, purified (HisTrap excel, HisTrap HP, Superdex 75)
T2 chain: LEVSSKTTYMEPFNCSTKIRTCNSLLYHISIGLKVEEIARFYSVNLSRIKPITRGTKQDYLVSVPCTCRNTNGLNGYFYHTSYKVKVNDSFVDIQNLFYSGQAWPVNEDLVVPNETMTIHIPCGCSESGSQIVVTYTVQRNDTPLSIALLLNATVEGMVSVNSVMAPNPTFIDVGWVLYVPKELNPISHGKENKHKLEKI
The assay is described as follows: SEC; analytic Superdex 75 Increase 3.2/300 column; mobility shift of the complex. The settings on record: both partners purified. In general terms: Size exclusion chromatography separates by hydrodynamic size, large species first.

By Kd is commonly meant the concentration at which binding is half-saturated. The low end stands for higher affinity, the high end for lower affinity. Molecule `O=C(O)[C@H]1O[C@@H](O[C@H]2[C@H](O)[C@@H](O)[C@@H](O[C@H]3[C@H](O)[C@@H](O)[C@H](OC[C@H]4O[C@@H](OC[C@H]5O[C@@H](O[C@H]6[C@H](O)[C@@H](O)[C@H](O[C@H]7[C@H](O)[C@@H](O)[C@H](O[C@H]8[C@@H](O)[C@@H](CO)OC(O)[C@@H]8O)O[C@@H]7CO)O[C@@H]6CO)[C@H](O)[C@@H](O)[C@@H]5O)[C@H](O)[C@@H](O)[C@@H]4O)O[C@@H]3CO)O[C@@H]2C(=O)O)[C@H](O)[C@@H]1O` (some centres unmarked) [deOAc-EPS] displayed a Kd at EPR3 of 31.3 ± 11.7 µM.

B1: Nb186 (VHH)
VHH: QVQLVESGGGLVQPGGSLRLSCAASGSIFSIDYMGWYRQAPGKERELVAIKTSGGTTHYADSVKGRFTISRDNAKNTVYLQMNSLKPDDTAVYYCNARVYFGDRDYWGQGTQVTVSS
notes: llama (Lama glama) nanobody selected by phage display against EPR3; Cloned into pET22b(+) for bacterial expression; also called nanobody Nb186; source: E. coli LOBSTR, purified (Ni Sepharose 6 FF, Superdex 75)
In the case of B1, the binding result in assay [1] was “binds”.
